Laboratory results as given in PubChem BioAssay (NCI).
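GI50 = concentration required for 50% inhibition of growth. TGI: total growth inhibition.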

Columns and labels:
Experiment in all cases: NCI tumour cell line growth inhibition, 384-well format
[1] = tested on: 786-0 renal
[2] = tested on: A498 renal
[3] = tested on: A549 NSCLC
[4] = tested on: ACHN renal
[5] = tested on: BT-549 breast
[6] = tested on: CAKI-1 renal
[7] = tested on: CCRF-CEM leukemia
[8] = tested on: COLO 205 colon
[9] = tested on: DU-145 prostate
[10] = tested on: HCC-2998 colon
[11] = tested on: HCT-116 colon
[12] = tested on: HCT-15 colon
[13] = tested on: HL-60(TB) leukemia
[14] = tested on: HOP-62 NSCLC
[15] = tested on: HT29 colon
[16] = tested on: IGROV1 ovarian
[17] = tested on: K-562 leukemia
[18] = tested on: KM12 colon
[19] = tested on: LOX IMVI melanoma
[20] = tested on: M14 melanoma
[21] = tested on: MALME-3M melanoma
[22] = tested on: MCF7 breast
[23] = tested on: MDA-MB-231 breast
[24] = tested on: MDA-MB-435 melanoma
[25] = tested on: MDA-MB-468 breast
[26] = tested on: MOLT-4 leukemia
[27] = tested on: NCI-H226 lung
[28] = tested on: NCI-H23 lung
[29] = tested on: NCI-H322M lung
[30] = tested on: NCI-H460 NSCLC
[31] = tested on: NCI-H522 lung
[32] = tested on: NCI/ADR-RES ovarian
[33] = tested on: OVCAR-3 ovarian
[34] = tested on: OVCAR-5 ovarian
[35] = tested on: PC-3 prostate
[36] = tested on: RPMI-8226 leukemia
[37] = tested on: RXF 393 renal
[38] = tested on: SF-268 CNS
[39] = tested on: SF-295 CNS
[40] = tested on: SF-539 CNS
[41] = tested on: SK-MEL-2 melanoma
[42] = tested on: SK-MEL-28 melanoma
[43] = tested on: SK-MEL-5 melanoma
[44] = tested on: SK-OV-3 ovarian
[45] = tested on: SN12C renal
[46] = tested on: SNB-19 CNS
[47] = tested on: SR leukemia
[48] = tested on: SW-620 colon
[49] = tested on: T-47D breast
[50] = tested on: TK-10 renal
[51] = tested on: U251 glioblastoma
[52] = tested on: UACC-257 melanoma
[53] = tested on: UACC-62 melanoma
[54] = tested on: UO-31 renal
[55] = tested on: EKVX NSCLC
[56] = tested on: HOP-92 NSCLC
[57] = tested on: HS 578T breast
[58] = tested on: OVCAR-4 ovarian
[59] = tested on: OVCAR-8 ovarian
[60] = tested on: SNB-75 CNS

COc1cc2nccc(Oc3ccc(NC(=O)c4cn(C(C)C)c(=O)n(-c5ccc(F)cc5)c4=O)cc3F)c2cc1OC
GI50 [1]: 18900 nM | TGI [1]: > 100000 nM | GI50 [2]: 3410 nM | TGI [2]: > 100000 nM | GI50 [3]: 4670 nM | TGI [3]: > 100000 nM | GI50 [4]: 1750 nM | TGI [4]: 5130 nM | GI50 [5]: 5270 nM | TGI [5]: > 100000 nM | GI50 [6]: 1460 nM | TGI [6]: 2810 nM | GI50 [7]: > 100000 nM | TGI [7]: > 100000 nM | GI50 [8]: > 100000 nM | TGI [8]: > 100000 nM | GI50 [9]: > 100000 nM | TGI [9]: > 100000 nM | GI50 [10]: > 100000 nM | TGI [10]: > 100000 nM | GI50 [11]: 5930 nM | TGI [11]: > 100000 nM | GI50 [12]: > 100000 nM | TGI [12]: > 100000 nM | GI50 [13]: 2600 nM | TGI [13]: > 100000 nM | GI50 [14]: 15000 nM | TGI [14]: > 100000 nM | GI50 [15]: 7990 nM | TGI [15]: > 100000 nM | GI50 [16]: 5500 nM | TGI [16]: > 100000 nM | GI50 [17]: 23.5 nM | TGI [17]: 137 nM | GI50 [18]: 31.5 nM | TGI [18]: > 100000 nM | GI50 [19]: > 100000 nM | TGI [19]: > 100000 nM | GI50 [20]: 82600 nM | TGI [20]: > 100000 nM | GI50 [21]: 2850 nM | TGI [21]: > 100000 nM | GI50 [22]: 7280 nM | TGI [22]: > 100000 nM | GI50 [23]: 3060 nM | TGI [23]: > 100000 nM | GI50 [24]: > 100000 nM | TGI [24]: > 100000 nM | GI50 [25]: 6910 nM | TGI [25]: > 100000 nM | GI50 [26]: 407 nM | TGI [26]: 4200 nM | GI50 [27]: 3810 nM | TGI [27]: 61400 nM | GI50 [28]: 46.9 nM | TGI [28]: > 100000 nM | GI50 [29]: > 100000 nM | TGI [29]: > 100000 nM | GI50 [30]: 4010 nM | TGI [30]: > 100000 nM | GI50 [31]: 1650 nM | TGI [31]: 5660 nM | GI50 [32]: > 100000 nM | TGI [32]: > 100000 nM | GI50 [33]: > 100000 nM | TGI [33]: > 100000 nM | GI50 [34]: > 100000 nM | TGI [34]: > 100000 nM | GI50 [35]: 18400 nM | TGI [35]: > 100000 nM | GI50 [36]: 3950 nM | TGI [36]: > 100000 nM | GI50 [37]: 630 nM | TGI [37]: 4890 nM | GI50 [38]: 3370 nM | TGI [38]: > 100000 nM | GI50 [39]: 271 nM | TGI [39]: > 100000 nM | GI50 [40]: 1300 nM | TGI [40]: 2850 nM | GI50 [41]: 2290 nM | TGI [41]: 9870 nM | GI50 [42]: 2970 nM | TGI [42]: > 100000 nM | GI50 [43]: 4940 nM | TGI [43]: > 100000 nM | GI50 [44]: 5580 nM | TGI [44]: > 100000 nM | GI50 [45]: 642 nM | TGI [45]: > 100000 nM | GI50 [46]: > 100000 nM | TGI [46]: > 100000 nM | GI50 [47]: 2690 nM | TGI [47]: 20600 nM | GI50 [48]: 9130 nM | TGI [48]: > 100000 nM | GI50 [49]: 1500 nM | TGI [49]: 6250 nM | GI50 [50]: 96600 nM | TGI [50]: > 100000 nM | GI50 [51]: > 100000 nM | TGI [51]: > 100000 nM | GI50 [52]: 2330 nM | TGI [52]: 8740 nM | GI50 [53]: 4500 nM | TGI [53]: > 100000 nM | GI50 [54]: 246 nM | TGI [54]: 650 nM

Cc1cc(O)c(-c2ccc([C@@H](C)CN(C)C)cc2)c2c1[nH]c(=O)c1sccc12
GI50 [1]: 50 nM | TGI [1]: 193 nM | GI50 [2]: 160 nM | TGI [2]: 319 nM | GI50 [3]: 225 nM | TGI [3]: 482 nM | GI50 [4]: 357 nM | TGI [4]: 1240 nM | GI50 [5]: 192 nM | TGI [5]: 451 nM | GI50 [6]: 292 nM | TGI [6]: 996 nM | GI50 [7]: 199 nM | TGI [7]: 399 nM | GI50 [8]: 1990 nM | TGI [8]: 4050 nM | GI50 [9]: 279 nM | TGI [9]: 706 nM | GI50 [55]: 451 nM | TGI [55]: 1500 nM | GI50 [10]: 197 nM | TGI [10]: 467 nM | GI50 [11]: 200 nM | TGI [11]: 383 nM | GI50 [12]: 378 nM | TGI [12]: 1390 nM | GI50 [13]: 19.7 nM | TGI [13]: 37.5 nM | GI50 [14]: 206 nM | TGI [14]: 401 nM | GI50 [56]: 357 nM | TGI [56]: 2120 nM | GI50 [57]: 129 nM | TGI [57]: 289 nM | GI50 [15]: 1780 nM | TGI [15]: 3270 nM | GI50 [16]: 362 nM | TGI [16]: 1270 nM | GI50 [17]: 295 nM | TGI [17]: 746 nM | GI50 [18]: 286 nM | TGI [18]: 850 nM | GI50 [19]: 253 nM | TGI [19]: 580 nM | GI50 [20]: 413 nM | TGI [20]: 1250 nM | GI50 [21]: 1000 nM | TGI [21]: 2190 nM | GI50 [22]: 63.6 nM | TGI [22]: 217 nM | GI50 [23]: 265 nM | TGI [23]: 682 nM | GI50 [24]: 444 nM | TGI [24]: 1430 nM | GI50 [25]: 27.8 nM | TGI [25]: 67.1 nM | GI50 [26]: 156 nM | TGI [26]: 295 nM | GI50 [27]: 285 nM | TGI [27]: 662 nM | GI50 [28]: 212 nM | TGI [28]: 446 nM | GI50 [29]: 411 nM | TGI [29]: 1210 nM | GI50 [30]: 186 nM | TGI [30]: 341 nM | GI50 [31]: 180 nM | TGI [31]: 350 nM | GI50 [32]: 2060 nM | TGI [32]: 4650 nM | GI50 [33]: 189 nM | TGI [33]: 381 nM | GI50 [58]: 199 nM | TGI [58]: 400 nM | GI50 [59]: 223 nM | TGI [59]: 447 nM | GI50 [35]: 286 nM | TGI [35]: 757 nM | GI50 [36]: 36.8 nM | TGI [36]: 108 nM | GI50 [37]: 14.6 nM | TGI [37]: 31.7 nM | GI50 [38]: 338 nM | TGI [38]: 1420 nM | GI50 [39]: 1810 nM | TGI [39]: 3680 nM | GI50 [40]: 133 nM | TGI [40]: 369 nM | GI50 [42]: 284 nM | TGI [42]: 1610 nM | GI50 [43]: 233 nM | TGI [43]: 547 nM | GI50 [44]: 171 nM | TGI [44]: 410 nM | GI50 [45]: 224 nM | TGI [45]: 571 nM | GI50 [46]: 335 nM | TGI [46]: 1110 nM | GI50 [60]: 159 nM | TGI [60]: 753 nM | GI50 [47]: 75.7 nM | TGI [47]: 179 nM | GI50 [48]: 443 nM | TGI [48]: 1260 nM | GI50 [49]: 1200 nM | TGI [49]: 5800 nM | GI50 [50]: 265 nM | TGI [50]: 713 nM | GI50 [51]: 173 nM | TGI [51]: 1100 nM | GI50 [52]: 831 nM | TGI [52]: 2090 nM | GI50 [53]: 283 nM | TGI [53]: 888 nM | GI50 [54]: 266 nM | TGI [54]: 663 nM
